Measurements: patent US20240410898A1, “METHOD FOR DETECTING PROTEIN HAVING CHANGES IN ENERGY STATE, OR AFFINITY OF LIGAND TO PROTEIN” (DALIAN INSTITUTE OF CHEMICAL PHYSICS, CHINESE ACADEMY OF …, priority 2022, published 2024)

What was measured:
[1] = tested on: metal ion-binding proteins in HeLa cell lysate; assay: PELSA, zinc chloride-treated HeLa cell lysate; settings: 30 μM zinc chloride
Experimental: After cell lysis following the procedure described in Example 1, the added EDTA was removed using Zeba Spin desalting columns (Thermo Fisher Scientific) through two rounds of protein desalting. A final concentration of 30 μM zinc chloride (Sigma, catalog number 450111-10G) was added to the 50 μL cell lysate, serving as the experimental group. Proteins meeting the criteria of −log 10Pvalue>3 and log 2FC<−0.5 were considered as proteins stabilized by Zn2+.

[2] = tested on: metal ion-binding proteins in HeLa cell lysate; assay: PELSA, zinc chloride-treated HeLa cell lysate; settings: −log 10Pvalue>6 and log 2FC>0
[3] = tested on: MAT2A and AKR1C2; assay: dimethyl labeling-based PELSA, MAT2A and AKR1C2; type: binding; settings: 100 μM
[4] = target: T1, AKR1C2 (Homo sapiens, UniProt P52895); assay: thermal shift assay with purified AKR1C2; type: binding; settings: purified protein
T1 construct: made in house
T1 sequence (P52895 1-323): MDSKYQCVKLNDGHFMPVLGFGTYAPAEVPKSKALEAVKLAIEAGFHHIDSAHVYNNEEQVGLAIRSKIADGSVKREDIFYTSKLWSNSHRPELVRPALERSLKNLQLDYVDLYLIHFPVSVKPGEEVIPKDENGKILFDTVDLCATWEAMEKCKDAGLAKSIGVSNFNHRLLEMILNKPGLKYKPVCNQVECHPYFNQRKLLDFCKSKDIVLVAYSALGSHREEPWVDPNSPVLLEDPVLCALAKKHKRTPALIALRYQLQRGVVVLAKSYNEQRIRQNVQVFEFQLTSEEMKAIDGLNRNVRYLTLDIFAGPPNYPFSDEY
Source text: (§1) HSP90 proteins consist of three domains: the N-terminal ATP-binding domain, the middle domain, and the C-terminal domain. […] This finding further supports the capability of PELSA to accurately identify protein regions with changes in energy state. In addition to known target proteins, PELSA also identified several off-target proteins. […] PRDX family proteins play a protective role by clearing ROS under oxidative stress conditions.

[5] = target: T2, MAT2A (Homo sapiens, UniProt P31153); assay: thermal shift assay with purified MAT2A; type: binding; settings: purified protein
T2 construct: made in house
T2 sequence (P31153 whole entry): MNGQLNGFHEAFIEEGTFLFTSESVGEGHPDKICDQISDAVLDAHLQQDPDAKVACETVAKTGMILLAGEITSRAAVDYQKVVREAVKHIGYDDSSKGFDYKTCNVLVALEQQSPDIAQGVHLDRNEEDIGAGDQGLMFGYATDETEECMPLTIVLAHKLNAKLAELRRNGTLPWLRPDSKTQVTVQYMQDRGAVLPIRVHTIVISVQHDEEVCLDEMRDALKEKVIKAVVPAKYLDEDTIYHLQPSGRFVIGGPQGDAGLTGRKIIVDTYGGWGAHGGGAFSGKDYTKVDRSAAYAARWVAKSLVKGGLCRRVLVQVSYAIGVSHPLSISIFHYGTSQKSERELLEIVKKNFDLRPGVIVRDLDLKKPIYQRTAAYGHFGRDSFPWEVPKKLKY
Source text: as §1

[6] = target: T3, PTGES2 (Homo sapiens, UniProt Q9H7Z7); assay: PELSA, lapatinib-treated BT474 cell lysate, non-kinase off-target; settings: high concentrations of lapatinib
T3 sequence (Q9H7Z7 whole entry): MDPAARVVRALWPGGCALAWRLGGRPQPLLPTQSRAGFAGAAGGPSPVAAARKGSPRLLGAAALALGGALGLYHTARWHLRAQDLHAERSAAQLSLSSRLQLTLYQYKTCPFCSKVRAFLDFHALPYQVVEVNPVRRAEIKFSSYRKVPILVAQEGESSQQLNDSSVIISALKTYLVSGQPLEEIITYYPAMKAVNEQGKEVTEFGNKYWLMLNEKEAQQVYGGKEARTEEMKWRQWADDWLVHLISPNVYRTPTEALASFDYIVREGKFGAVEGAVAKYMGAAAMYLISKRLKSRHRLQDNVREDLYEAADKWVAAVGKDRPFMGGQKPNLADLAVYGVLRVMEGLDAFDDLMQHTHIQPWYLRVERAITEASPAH
Experimental: (1) Take a dish of BT474 cells (approximately 5e7 cells) and resuspend them in 1 mL lysis buffer (PBS supplemented with 1% (v/v) protease inhibitor (Sigma, catalog number P8340-5 mL)). Freeze-thaw the mixture three times (freeze in liquid nitrogen for two minutes, thaw in a 37° C. water bath for two minutes, repeat three times) to obtain crude cell lysates. Centrifuge the crude cell lysates at 500 g, 4° C. for 10 minutes, and collect the supernatant as the cell lysate. Determine the protein concentration using the Pierce™ 660 nm Protein Assay (Thermo, USA).
(2) Adjust the protein concentration of the cell lysate to 1 mg/mL using cell lysis buffer. […]
(6) The above-mentioned peptide mixture was reconstituted in 20 μL of 0.1% (v/v) formic acid (Sigma, Catalog No. V900803) and subjected to LC-MS/MS analysis. Each sample was analyzed once using data-independent acquisition (DIA) mass spectrometry. The Spectronaut software was used to identify and quantify the peptides, providing information on the corresponding protein, the peptide's location within the protein, and its abundance in each sample.
(7) The abundance of peptides in the lapatinib-treated and untreated groups was statistically evaluated using Empirical Bayes t-test to determine the P-value and fold change for each peptide, representing the significance and magnitude of the peptide's abundance change upon lapatinib treatment. […]

[7] = target: T4, ERBB2 (Homo sapiens, UniProt P04626); settings: cited from earlier work
T4 sequence (P04626 23-1255): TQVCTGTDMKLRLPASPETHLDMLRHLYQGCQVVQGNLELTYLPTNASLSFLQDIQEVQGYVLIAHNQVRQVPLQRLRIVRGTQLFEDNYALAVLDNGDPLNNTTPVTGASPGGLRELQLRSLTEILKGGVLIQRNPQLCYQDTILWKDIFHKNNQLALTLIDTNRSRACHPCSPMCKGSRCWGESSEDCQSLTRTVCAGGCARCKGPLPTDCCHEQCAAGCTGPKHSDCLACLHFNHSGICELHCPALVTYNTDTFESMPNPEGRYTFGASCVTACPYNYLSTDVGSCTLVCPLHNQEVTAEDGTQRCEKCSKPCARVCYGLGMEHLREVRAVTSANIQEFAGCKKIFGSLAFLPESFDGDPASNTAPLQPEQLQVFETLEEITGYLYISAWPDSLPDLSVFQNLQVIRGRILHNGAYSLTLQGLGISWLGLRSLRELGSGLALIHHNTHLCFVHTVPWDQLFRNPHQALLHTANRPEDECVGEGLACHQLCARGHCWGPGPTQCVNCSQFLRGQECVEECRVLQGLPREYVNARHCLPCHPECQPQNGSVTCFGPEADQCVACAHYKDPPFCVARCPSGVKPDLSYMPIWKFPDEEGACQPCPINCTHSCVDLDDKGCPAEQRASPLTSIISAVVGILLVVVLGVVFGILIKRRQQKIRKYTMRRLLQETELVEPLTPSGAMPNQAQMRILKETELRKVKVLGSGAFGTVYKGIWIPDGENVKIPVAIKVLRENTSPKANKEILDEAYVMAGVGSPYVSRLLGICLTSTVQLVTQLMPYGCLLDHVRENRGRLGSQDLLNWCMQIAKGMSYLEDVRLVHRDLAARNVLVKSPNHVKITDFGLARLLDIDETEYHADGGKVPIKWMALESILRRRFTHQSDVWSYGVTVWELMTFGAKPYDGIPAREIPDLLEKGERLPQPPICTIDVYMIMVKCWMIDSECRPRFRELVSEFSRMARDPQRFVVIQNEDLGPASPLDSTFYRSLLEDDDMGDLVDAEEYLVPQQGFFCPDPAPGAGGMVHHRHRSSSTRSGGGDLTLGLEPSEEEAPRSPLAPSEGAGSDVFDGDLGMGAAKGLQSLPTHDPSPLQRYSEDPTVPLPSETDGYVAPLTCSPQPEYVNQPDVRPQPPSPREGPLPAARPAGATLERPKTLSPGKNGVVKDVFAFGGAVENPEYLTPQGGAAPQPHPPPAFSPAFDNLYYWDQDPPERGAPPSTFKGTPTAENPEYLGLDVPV

[8] = target: T3, PTGES2; assay: Western blotting of undigested PTGES2 after trypsin digestion; type: binding; parameters: collect the supernatant as the cell lysate; endogenous in cells; host or cells: BT474 cell lysate
Experimental: To validate the binding of PTGES2 and lapatinib, we performed Western blotting using a similar procedure and conditions as mentioned above, with the following modifications: The lysis buffer is PBS. After lysis, the resulting cell lysates were divided into 8 portions and treated with equal volumes of lapatinib at different final concentrations (lapatinib dissolved in DMSO), as well as DMSO, resulting in final lapatinib concentrations of 100 μM, 50 μM, 10 μM, 1 μM, 0.1 μM, 0.01 μM, 0.001 μM, and 0. The mixtures were incubated at room temperature (25° C.) for 30 minutes. After incubation, trypsin was added at a 1:40 protease-to-protein weight ratio, and the mixture was subjected to digestion at 37° C. for 1 minute. The digestion was terminated by heating the samples to 95° C., followed by the addition of ¼ volume of 5*loading buffer, and heating at 95° C. for another 5 minutes. Western blotting was employed to detect the undigested proteins. The gel was concentrated at 80 V for 20 minutes, and then separated at 120 V for 60 minutes. Transfer blotting was conducted at a constant current of 250 mA for 40 minutes. After blocking, the primary antibody against PTGES2 (Proteintech, USA) was added at a 1:800 dilution and incubated at room temperature for 1 hour. […] The undigested protein bands were quantified based on their intensities, using GAPDH as a reference protein. […]

[9] = target: T4, ERBB2; assay: PELSA, lapatinib-treated BT474 cell lysate; type: binding
[10] = tested on: CHEK2, SLK, RIPK2, and YES1; assay: PELSA, lapatinib-treated BT474 cell lysate, off-target kinases; type: binding; settings: increased lapatinib concentration (1 μM and above)
[11] = target: T5, SLC1A5 (Homo sapiens, UniProt Q15758); assay: PELSA, leucine-treated K562 cell lysate, SLC1A5; type: binding; settings: 5 mM leucine
T5 construct: Protein-level volcano plot corresponding to 5 mM leucine-treated K562 cell lysates; endogenous in cells; host or cells: K562 cell lysate
T5 sequence (Q15758 1-541): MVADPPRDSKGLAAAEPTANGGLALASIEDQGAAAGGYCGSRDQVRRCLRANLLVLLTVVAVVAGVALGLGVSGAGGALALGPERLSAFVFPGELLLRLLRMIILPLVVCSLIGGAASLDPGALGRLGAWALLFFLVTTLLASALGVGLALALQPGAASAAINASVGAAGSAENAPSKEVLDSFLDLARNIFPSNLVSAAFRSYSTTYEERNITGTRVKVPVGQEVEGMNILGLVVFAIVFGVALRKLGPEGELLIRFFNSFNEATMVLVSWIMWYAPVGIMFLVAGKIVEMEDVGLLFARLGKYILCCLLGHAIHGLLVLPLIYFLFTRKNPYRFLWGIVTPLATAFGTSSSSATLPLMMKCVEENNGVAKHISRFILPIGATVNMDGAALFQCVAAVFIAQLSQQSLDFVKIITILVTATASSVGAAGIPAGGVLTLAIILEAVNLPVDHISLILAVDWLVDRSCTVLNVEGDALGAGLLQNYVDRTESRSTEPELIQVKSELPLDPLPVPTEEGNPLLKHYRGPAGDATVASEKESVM
Source text: (§2) These findings indicate the ability of PELSA to differentiate between distinct binding sites on a single protein. […] SLC1A5 is a membrane protein comprising intracellular, transmembrane, and extracellular regions. The Na-dicarboxylate_symporter domain (residues 54-483), located in the extracellular region, plays a key role in amino acid transport.

[12] = target: LARS1 (Homo sapiens, UniProt Q9P2J5); settings: Kim S, et al., Cell Reports, 2021; read-out: dissociation constant, leucine-LARS1; cited from earlier work
LARS1, sequence (Q9P2J5 whole entry, species assumed): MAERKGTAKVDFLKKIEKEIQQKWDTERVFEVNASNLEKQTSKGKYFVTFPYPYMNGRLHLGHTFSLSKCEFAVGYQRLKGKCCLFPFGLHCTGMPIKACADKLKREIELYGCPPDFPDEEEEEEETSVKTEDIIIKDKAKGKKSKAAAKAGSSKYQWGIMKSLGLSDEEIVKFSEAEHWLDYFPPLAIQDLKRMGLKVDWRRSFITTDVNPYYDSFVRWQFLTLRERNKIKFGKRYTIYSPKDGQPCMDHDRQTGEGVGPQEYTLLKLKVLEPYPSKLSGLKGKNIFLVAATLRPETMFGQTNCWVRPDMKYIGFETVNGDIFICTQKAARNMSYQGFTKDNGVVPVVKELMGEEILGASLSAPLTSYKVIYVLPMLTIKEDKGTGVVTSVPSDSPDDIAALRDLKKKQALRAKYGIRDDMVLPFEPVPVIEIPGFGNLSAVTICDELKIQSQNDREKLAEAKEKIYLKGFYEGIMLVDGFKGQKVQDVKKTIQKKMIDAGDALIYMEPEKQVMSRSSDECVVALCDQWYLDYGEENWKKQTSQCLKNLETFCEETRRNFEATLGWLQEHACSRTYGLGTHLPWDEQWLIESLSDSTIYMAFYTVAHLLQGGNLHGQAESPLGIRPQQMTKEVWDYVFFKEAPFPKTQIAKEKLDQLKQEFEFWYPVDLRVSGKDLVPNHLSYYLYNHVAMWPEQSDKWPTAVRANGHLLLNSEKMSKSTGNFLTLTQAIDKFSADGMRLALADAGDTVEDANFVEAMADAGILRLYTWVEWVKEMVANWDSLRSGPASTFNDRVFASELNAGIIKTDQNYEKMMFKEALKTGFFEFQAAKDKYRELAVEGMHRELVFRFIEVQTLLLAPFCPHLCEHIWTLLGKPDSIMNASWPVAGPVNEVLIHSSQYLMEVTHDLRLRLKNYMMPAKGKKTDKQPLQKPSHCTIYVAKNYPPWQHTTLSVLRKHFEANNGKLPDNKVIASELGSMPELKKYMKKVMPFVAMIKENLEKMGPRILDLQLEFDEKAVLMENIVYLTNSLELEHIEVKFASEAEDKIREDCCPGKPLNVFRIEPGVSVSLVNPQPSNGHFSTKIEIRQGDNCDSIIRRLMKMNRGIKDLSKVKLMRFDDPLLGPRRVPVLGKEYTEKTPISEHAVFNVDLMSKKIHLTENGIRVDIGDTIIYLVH

[13] = tested on: LARS1, LARS2, GLUD1, and SENS2; assay: PELSA, leucine-treated K562 cell lysate, known targets; type: binding; settings: 5 mM leucine
Source text: as §2

[14] = tested on: PPIP5K1 and PPIP5K2; assay: PELSA, leucine-treated K562 cell lysate, PPIP5K1/2; type: binding; settings: 5 mM leucine, histidine phosphatase domains
Source text: as §2

[15] = tested on: kinases in K562 cell lysates; settings: cited from earlier work
[16] = tested on: kinases in HeLa cell lysates; settings: kinase proportion ≥80%; cited from earlier work
[17] = tested on: kinases in K562 and HeLa lysates
Source text: (§3) We further compared the protein and peptide coverage depths of LiP-Quant, TPP, and PELSA.

[18] = tested on: kinases in HeLa cell lysate; settings: 20 μM staurosporine
Source text: as §3

[19] = tested on: kinases in K562 cell lysate; assay: PELSA, staurosporine-treated K562 cell lysate; type: binding; settings: 20 μM staurosporine
Source text: as §3

[20] = tested on: proteins containing the SH2 domain; assay: pulldown experiment with Biotin-pYEEI, BT474 cell lysate; type: binding; settings: 100 μM Biotin-pYEEI
Experimental: The pulldown experiment was conducted as follows: The cell lysate is from BT474 cells, and the cell lysis was performed as described in Example 1. […] Two additional 100 μL samples were treated with Biotin-pSEEI at a final concentration of 100 μM and Biotin-YEEI at a final concentration of 100 μM, respectively, serving as control groups. This process was repeated three times, and the samples were incubated with ligands at room temperature for 30 minutes. After incubation, 200 μL of avidin beads (Thermo, USA) were added to each group and incubated overnight at 4° C. Subsequently, the beads were washed four times with a washing buffer (1% phosphatase inhibitor, and 0.5% NP40 in PBS), followed by four washes with a cell lysis buffer (1% phosphatase inhibitor in PBS solution). The proteins were eluted by adding 100 μL of HEPES buffer (pH 8.2) containing 8M guanidine hydrochloride, and the elution step was repeated twice. The eluted proteins were alkylated by adding 10 mM TCEP and 40 mM CAA, followed by heating at 95° C. for 5 minutes. The eluted protein solution was transferred to an ultrafiltration unit and centrifuged at 14,000 g for 30 minutes to remove the buffer. The ultrafiltration membrane was washed twice with 200 μL of a 10 mM ammonium bicarbonate (NH4HCO3) buffer. […]

[21] = target: PTPN11 (Homo sapiens, UniProt Q06124); assay: PELSA compared with LiP-MS, SHP099-treated HeLa cell lysate; type: binding
[22] = tested on: proteins of Escherichia coli; settings: Piazza I et al., Cell, 2018; cited from earlier work

## [Cl-].[Cl-].[Zn+2] [Zn2+, zinc chloride]
[1]
  Zn2+-binding proteins containing zinc finger motifs: 60
  stability of 26S proteasome regulatory subunits PSMC1-6: destabilization in the components of the 26S proteasome regulatory subunits
  stabilized Zn2+-binding proteins: 112
  stabilized known Ca2+-binding proteins: 25
  stabilized known Fe2+-binding proteins: 15
  stabilized known Mg2+-binding proteins: 20
  stabilized known Mn2+-binding proteins: 9
  stabilized known binding proteins of other metal ions: 6
  stabilized proteins that are known binding proteins of other metal ions: 73
  stabilized proteins that are known metal ion-binding proteins: 185
[1]; −log 10Pvalue>3 and log 2FC<−0.5
  number of proteins stabilized by Zn2+: 280
[1]; 19% in entire identified proteome
  proportion of known metal ion-binding proteins among stabilized proteins: more than 66%
[2]
  stability of proteins containing IQ motifs: destabilization in several proteins containing IQ motifs

## CC(C)c1cc(-c2n[nH]c(=O)n2-c2ccc3c(ccn3C)c2)c(O)cc1O [ganetespib]
[3]
  off-target proteins MAT2A and AKR1C2: two previously-unreported off-target proteins of ganetespib, namely MAT2A and AKR1C2
[4]
  thermal melting temperature / stabilization of AKR1C2: significantly increased
[5]
  thermal melting temperature of MAT2A: significantly increased

## CS(=O)(=O)CCNCc1ccc(-c2ccc3ncnc(Nc4ccc(OCc5cccc(F)c5)c(Cl)c4)c3c2)o1 [lapatinib]
[6]
  energy state change of PTGES2: exhibited changes in its energy state
[7]
  affinity of lapatinib to ERBB2: approximately 9 nM
[8]; Western blotting
  lapatinib concentration at which maximum PTGES2 protection was reached: 50 µM
[8]; lapatinib 0.001-100 μM, trypsin 1:40, 37° C. 1 minute
  PTGES2 protected from digestion (Western blot band intensity): increasing amount of PTGES2 protein protected from digestion
[9]; 100 nM lapatinib, |log 2(fold change)|>0.3 & −log 10(P value)>2
  location of significantly altered ERBB2 peptides: only within or in close proximity to the kinase domain
[9]; lapatinib 100 μM, 10 μM and 1 μM
  resistance to proteolysis of peptides within the kinase domain of ERBB2: more resistant to proteolysis
[10]
  energy state changes of other kinases: energy state changes in several other kinases such as CHEK2, SLK, RIPK2, and YES1

## CC(C)C[C@H](N)C(=O)O [leucine]
[11]
  energy state change of SLC1A5: significant changes in the energy state of SLC1A5
[12]
  Kd: 95 µM
[13]
  energy state changes of LARS1, LARS2, GLUD1, SENS2: significant changes in the energy states
[14]
  stabilization of PPIP5K1 and PPIP5K2: stabilized PPIP5K1 and PPIP5K2

## CN[C@@H]1C[C@H]2O[C@@](C)([C@@H]1OC)n1c3ccccc3c3c4c(c5c6ccccc6n2c5c31)C(=O)NC4 [staurosporine]
[15]
  number of kinase targets identified by TPP: 53
  total number of target proteins identified by TPP: 60
[16]
  number of kinase targets identified by LiP-Quant: 9
[17]; K562 and HeLa
  proportion of kinases among all target proteins: 80%
  total staurosporine target proteins in the two cell lines: 192
[17]; both K562 and HeLa lysates
  significantly changed peptides located within or within 10 residues of kinase domains: over 92%
[18]
  total number of target proteins identified: 135
[19]
  total number of target proteins identified: 143

## Phosphorylated tyrosine-glutamate-glutamate-isoleucine [pYEEI]
[20]
  SH2 domain proteins determined as pYEEI-binding proteins in pulldown: none of the proteins containing the SH2 domain was determined as pYEEI-binding proteins

## SHP099
[21]; 10 μM SHP099
  fold change of PTPN11 peptide at the SHP099-binding site: exhibited fold changes exclusively in PELSA experiments
[21]; 10 μM SHP099, HeLa cell lysate
  number of SHP099-responsive PTPN11 peptides, PELSA relative to LiP-MS: 5.25 times
  response magnitude of PTPN11 peptides to SHP099, PELSA relative to LiP-MS: 6.4 times

## alpha-ketoglutarate [αKG]
[22]
  previously known αKG-binding proteins among LiP-MS targets: 2
  target proteins identified by LiP-MS: 34
